Among the data in patent US8569291B2, “Bicyclic dihydroimidazolone CGRP receptor antagonists” (Merck Sharp & Dohme Corp., priority 2008, dated 2013) are Ki values, retold here.

For orientation: Ki means a measure of affinity in units of concentration, obtained from inhibition or displacement.

In the assay the target is recombinant human CL receptor/RAMP1 (Homo sapiens (Human), UniProt O60894+Q16602). As to the kind of experiment: recombinant receptor binding assay (125I-hCGRP displacement). To be noted: membranes of HEK 293 cells expressing human CL receptor/RAMP1, 10 pM 125I-hCGRP. As for the experimental part: RECOMBINANT RECEPTOR: Human CL receptor (Genbank accession number L76380) was subcloned into the expression vector pIREShyg2 (BD Biosciences Clontech) as a 5′NheI and 3′ PmeI fragment. Human RAMP1 (Genbank accession number AJ001014) was subcloned into the expression vector pIRESpuro2 (BD Biosciences Clontech) as a 5′NheI and 3′NotI fragment. HEK 293 cells (human embryonic kidney cells; ATCC #CRL-1573) were cultured in DMEM with 4.5 g/L glucose, 1 mM sodium pyruvate and 2 mM glutamine supplemented with 10% fetal bovine serum (FBS), 100 units/mL penicillin and 100 μg/mL streptomycin, and maintained at 37° C. and 95% humidity. Cells were subcultured by treatment with 0.25% trypsin with 0.1% EDTA in HBSS. Stable cell line generation was accomplished by co-transfecting 10 μg of DNA with 30 ug Lipofectamine 2000 (Invitrogen) in 75 cm^2 flasks. CL receptor and RAMP1 expression constructs were co-transfected in equal amounts. Twenty-four hours after transfection the cells were diluted and selective medium (growth medium+300 μg/mL hygromycin and 1 μg/mL puromycin) was added the following day. A clonal cell line was generated by single cell deposition utilizing a FACS Vantage SE (Becton Dickinson). Growth medium was adjusted to 150 μg/mL hygromycin and 0.5 μg/mL puromycin for cell propagation.
Sequence of recombinant human CL receptor/RAMP1 (Q16602 23-461): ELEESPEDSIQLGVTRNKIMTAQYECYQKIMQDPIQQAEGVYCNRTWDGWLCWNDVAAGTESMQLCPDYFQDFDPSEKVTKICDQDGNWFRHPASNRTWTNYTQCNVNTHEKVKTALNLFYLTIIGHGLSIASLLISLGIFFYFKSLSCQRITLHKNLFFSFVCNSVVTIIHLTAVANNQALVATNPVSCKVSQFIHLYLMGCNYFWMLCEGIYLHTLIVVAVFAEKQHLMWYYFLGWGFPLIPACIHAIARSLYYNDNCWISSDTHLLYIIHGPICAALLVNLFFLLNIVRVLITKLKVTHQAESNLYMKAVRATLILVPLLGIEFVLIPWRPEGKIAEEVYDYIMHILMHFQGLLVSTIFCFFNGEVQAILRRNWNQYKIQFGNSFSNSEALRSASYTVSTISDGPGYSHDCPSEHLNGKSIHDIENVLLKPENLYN
Sequence of recombinant human CL receptor/RAMP1 (O60894 27-148): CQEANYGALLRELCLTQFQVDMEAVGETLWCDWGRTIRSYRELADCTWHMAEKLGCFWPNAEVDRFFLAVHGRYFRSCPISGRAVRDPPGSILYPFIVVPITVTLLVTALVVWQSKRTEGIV
RECOMBINANT RECEPTOR BINDING ASSAY: Cells expressing recombinant human CL receptor/RAMP1 were washed with PBS and harvested in harvest buffer containing 50 mM HEPES, 1 mM EDTA and Complete protease inhibitors (Roche). The cell suspension was disrupted with a laboratory homogenizer and centrifuged at 48,000 g to isolate membranes. The pellets were resuspended in harvest buffer plus 250 mM sucrose and stored at—70° C. For binding assays, 20 μg of membranes were incubated in 1 ml binding buffer (10 mM HEPES, pH 7.4, 5 mM MgCl2, and 0.2% BSA) for 3 hours at room temperature containing 10 pM ^125I-hCGRP (GE Healthcare) and antagonist. The assay was terminated by filtration through 96-well GFB glass fiber filter plates (PerkinElmer) that had been blocked with 0.05% polyethyleneimine. The filters were washed 3 times with ice-cold assay buffer (10 mM HEPES, pH 7.4 and 5 mM MgCl2). Scintillation fluid was added and the plates were counted on a Topcount (Packard). Non-specific binding was determined and the data analysis was carried out with the apparent dissociation constant (Ki) determined by using a non-linear least squares fitting the bound CPM data to the equation below:
[formula] Where Y is observed CPM bound, Ymax is total bound counts, Ymin is non specific bound counts, (Ymax−Ymin) is specific bound counts, % Imax is the maximum percent inhibition, % I min is the minimum percent inhibition, radiolabel is the probe, and the Kd is the apparent dissociation constant for the radioligand for the receptor as determined by Hot saturation experiments.

With `O=C(Cn1c(=O)n(-c2nccs2)c2ccccc21)Nc1ccc2c(c1)CC1(C2)N=C(c2ccccc2)NC1=O` (racemic) [Example 1, (±)-N-(5-oxo-2-phenyl-1,1′,3′,5-tetrahydrospiro[imidazole-4,2′-inden]-5′-yl)-2-[2-oxo-3-(1,3-thiazol-2-yl)-2,3-dihydro-1H-benzimidazol-1-yl]acetamide], the Ki amounted to 25 nM. Take `O=C(Cn1c(=O)n(-c2ccccn2)c2ccccc21)Nc1ccc2c(c1)CC1(C2)N=C(c2ccccn2)NC1=O` (racemic) [Example 2, (±)-2-(2-oxo-3-pyridin-2-yl-2,3-dihydro-1H-benzimidazol-1-yl)-N-(5-oxo-2-pyridin-2-yl-1,1′,3′,5-tetrahydrospiro[imidazole-4,2′-inden]-5′-yl)acetamide]: the Ki is 570 nM.

Take `O=C(CN1C(=O)C2(CCCC2)NC[C@H]1c1cc(F)cc(F)c1)Nc1ccc2c(c1)CC1(C2)N=C(c2ccccc2)NC1=O` (single isomer, unassigned) [Example 11]: the Ki worked out at 0.21 nM. The figure for `O=C(CN1C(=O)C2(CCCC2)NC[C@H]1c1cc(F)cc(F)c1)Nc1ccc2c(c1)CC1(C2)N=C(c2ccccc2)NC1=O` (single isomer, unassigned) [Example 12] is 29 nM; for `O=C(Cn1c(=O)n(-c2ccccn2)c2ccccc21)Nc1ccc2c(c1)CC1(C2)N=C(C2CC2)NC1=O` (centres unmarked) [Example 3] it is 2600 nM. The value for `CCCC1=NC2(Cc3ccc(NC(=O)Cn4c(=O)n(-c5ccccn5)c5ccccc54)cc3C2)C(=O)N1` (centres unmarked) [Example 4] was 6400 nM. `O=C(Cn1c(=O)n(-c2ccccn2)c2ccccc21)Nc1ccc2c(c1)CC1(C2)N=C(c2cnccn2)NC1=O` (centres unmarked) [Example 6]: the Ki stood at 630 nM. The figure for `O=C(Cn1c(=O)n(-c2ccccn2)c2ccccc21)Nc1ccc2c(c1)CC1(C2)N=C(c2ccccc2)NC1=O` (centres unmarked) [Example 7] is 35 nM. The figure for `O=C(Cn1c(=O)n(-c2ccccn2)c2ccccc21)Nc1ccc2c(c1)CC1(C2)N=C(c2cccnc2)NC1=O` (centres unmarked) [Example 8] is 130 nM. The value for `O=C(Cn1c(=O)n(-c2ccccn2)c2ccccc21)Nc1ccc2c(c1)CC1(C2)N=C(c2ccncc2)NC1=O` (centres unmarked) [Example 9] was 160 nM; that for `C[C@@]1(c2cc(F)cc(F)c2)CNC2(CCCC2)C(=O)N1CC(=O)Nc1ccc2c(c1)CC1(C2)N=C(c2ccccc2)NC1=O` (some centres unmarked) [Example 13] was 1.6 nM.
